US7582678B2, “Use of branched-chain fatty acids and derivatives thereof for the treatment of pain” (D-PHARM Limited, priority 1998, dated 2009)
Marks after values point to notes of the source that are not given here.

Tests used:
Male CD-1 mice = assay: Tail flick assay (radiated heat, acute pain) in mice; conditions: for size of analgesic effect, ranking among tested compounds: tail flick, Table 1;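 for all read-outs here: infrared heat aimed at the tail of restrained mice, time until tail flick recorded as mean of 2-3 readings, 4-8 animals per group, compared with vehicle-treated animals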
Protocol: The analgesic effect of branched-chain fatty acids (BFAs) and their DP-BFAs derivatives was tested by using the tail flick assay in mice.
This model uses radiated infrared (IR) heat source that is directed to the tail of a restrained mouse. The threshold of tolerance for heat is indicated by a time-meter, which is stopped instantaneously when the tail flicks. This time is defined as ‘withdrawal latency’.
Male CD-1 mice weighing around 25-30 grams (4-8 animals per each dose of the tested compound) were used. The animals were put in clear plastic cages above an IR source (7371-Plantar™ Analgesia Instrument, UGO Basile), where the IR generator is placed directly underneath the tail of the mouse and the light beam is focused on the proximal third of the tail.
The withdrawal latency, namely the time interval from the starting of the infrared radiation until the animal feels pain and flicks its tail is determined. The initial withdrawal latency for each animal was measured at t=0 and was determined as its baseline threshold.
In order to determine the analgesic effect of a tested drug, the drug (10 to 200 mg/kg body weight) was administered to mice either orally (p.o.) or by intraperitoneal (i.p.) or subcutaneous (s.c.) injection. Withdrawal latency was determined at different time points post-administration of the drug as indicated. Each reading was performed 2-3 times and the mean-value was calculated. […] The withdrawal latency at each time point post injection is the average of 4-8 animals per group. […] Paired T-test was used to assess significance in comparison to the baseline value (t=0). Morphine was used as a positive control (2 animals per dose).

[1] = I.P., 100 mg/kg, 15 min post-injection
[2] = I.P., 100 mg/kg, 45 min post-injection
[3] = I.P., 100 mg/kg, 75 min post-injection
[4] = I.P., 100 mg/kg, 105 min post-injection
[5] = I.P., 100 mg/kg, 135 min post-injection
[6] = I.P., 200 mg/kg, 15 min post-injection
[7] = I.P., 200 mg/kg, 45 min post-injection
[8] = I.P., 200 mg/kg, 105 min post-injection
[9] = I.P., 50 mg/kg, 15 min post-injection
[10] = I.P., 50 mg/kg, 45 min post-injection
[11] = I.P., 50 mg/kg, 75 min post-injection
[12] = I.P., 50 mg/kg, 105 min post-injection
[13] = I.P., 50 mg/kg, 135 min post-injection
[14] = I.P., 200 mg/kg, 75 min post-injection
[15] = I.P., 200 mg/kg, 135 min post-injection
[16] = I.P., 50 mg/kg, 285 min post-injection
[17] = I.P., 50 mg/kg, 345 min post-injection
[18] = I.P., 100 mg/kg, 285 min post-injection
[19] = I.P., 100 mg/kg, 345 min post-injection

| Compound | Withdrawal latency (% of vehicle) (Male CD-1 mice; [1]) | Withdrawal latency (% of vehicle) (Male CD-1 mice; [2]) | Withdrawal latency (% of vehicle) (Male CD-1 mice; [3]) | Withdrawal latency (% of vehicle) (Male CD-1 mice; [4]) | Withdrawal latency (% of vehicle) (Male CD-1 mice; [5]) | Withdrawal latency (% of vehicle) (Male CD-1 mice; [6]) | Withdrawal latency (% of vehicle) (Male CD-1 mice; [7]) | Withdrawal latency (% of vehicle) (Male CD-1 mice; [8]) | Withdrawal latency (% of vehicle) (Male CD-1 mice; [9]) | Withdrawal latency (% of vehicle) (Male CD-1 mice; [10]) | Withdrawal latency (% of vehicle) (Male CD-1 mice; [11]) | Withdrawal latency (% of vehicle) (Male CD-1 mice; [12]) | Withdrawal latency (% of vehicle) (Male CD-1 mice; [13]) | also measured |
| --- | --- | --- | --- | --- | --- | --- | --- | --- | --- | --- | --- | --- | --- | --- |
| CCCCCCCCCCC(CCC)C(=O)O (stereo not shown) [M(3,10), 2-Propyldodecanoic acid] | 142% of vehicle | 155% of vehicle | 131% of vehicle | 156% of vehicle | 123% of vehicle | 186% of vehicle | 210% of vehicle | 183% of vehicle | – | – | – | – | – | size of analgesic effect, ranking among tested compounds (Male CD-1 mice): largest analgesic effects |
| CN1CC[C@]23c4c5ccc(O)c4O[C@H]2[C@@H](O)C=C[C@H]3[C@H]1C5 [Morphine, reference compound] | – | – | – | – | – | – | – | – | – | – | – | – | – | Withdrawal latency (% of vehicle) (Male CD-1 mice; I.P., 1 mg/kg, 15 min post-injection): 97% of vehicle; Withdrawal latency (% of vehicle) (Male CD-1 mice; I.P., 1 mg/kg, 45 min post-injection): 136% of vehicle; Withdrawal latency (% of vehicle) (Male CD-1 mice; I.P., 1 mg/kg, 75 min post-injection): 207% of vehicle; Withdrawal latency (% of vehicle) (Male CD-1 mice; I.P., 1 mg/kg, 105 min post-injection): 179% of vehicle; Withdrawal latency (% of vehicle) (Male CD-1 mice; I.P., 1 mg/kg, 255 min post-injection): 142%** % of vehicle; Withdrawal latency (% of vehicle) (Male CD-1 mice; I.P., 10 mg/kg, 15 min post-injection): 139% of vehicle; Withdrawal latency (% of vehicle) (Male CD-1 mice; I.P., 10 mg/kg, 45 min post-injection): 171% of vehicle; Withdrawal latency (% of vehicle) (Male CD-1 mice; I.P., 10 mg/kg, 75 min post-injection): 284% of vehicle; Withdrawal latency (% of vehicle) (Male CD-1 mice; I.P., 10 mg/kg, 105 min post-injection): 238% of vehicle; Withdrawal latency (% of vehicle) (Male CD-1 mice; I.P., 10 mg/kg, 255 min post-injection): 151%** % of vehicle |
| CCCCCCCCCCC(CCC)C(=O)O (stereo not shown) [M(3,10)—Na, 2-Propyldodecanoic acid] | 181% of vehicle | 153% of vehicle | 121% of vehicle | 143% of vehicle | 148% of vehicle | 158% of vehicle | 220% of vehicle | 141% of vehicle | 151% of vehicle | 138% of vehicle | 128% of vehicle | 123% of vehicle | 102% of vehicle | Withdrawal latency (% of vehicle) (Male CD-1 mice; [14]): 216% of vehicle; Withdrawal latency (% of vehicle) (Male CD-1 mice; [15]): 175% of vehicle |
| CCCCCC(CCCCC)C(=O)O [M(5,5)—Na, 2-Pentylheptanoic acid] | 137% of vehicle | 164% of vehicle | 164% of vehicle | 193% of vehicle | – | – | – | – | 115% of vehicle | 124% of vehicle | 117% of vehicle | 134% of vehicle | – | – |
| CCCCCCCC(CCCCCCC)OP(=O)(O)O [(7,7)-PO4, 8-Pentadecanyl Phosphate] | – | – | – | – | – | – | – | – | – | – | – | – | – | Withdrawal latency (% of vehicle) (Male CD-1 mice; P.O., 200 mg/kg, 45 min post-administration): 93% of vehicle; Withdrawal latency (% of vehicle) (Male CD-1 mice; P.O., 200 mg/kg, 75 min post-administration): 94% of vehicle; Withdrawal latency (% of vehicle) (Male CD-1 mice; P.O., 200 mg/kg, 105 min post-administration): 124% of vehicle; Withdrawal latency (% of vehicle) (Male CD-1 mice; P.O., 200 mg/kg, 135 min post-administration): 133% of vehicle; Withdrawal latency (% of vehicle) (Male CD-1 mice; P.O., 200 mg/kg, 285 min post-administration): 162% of vehicle; Withdrawal latency (% of vehicle) (Male CD-1 mice; P.O., 200 mg/kg, 345 min post-administration): 129% of vehicle |
| CCCCCCCC(CCCCCCC)C(=O)O [M(7,7), 2-Heptylnonanoic acid] | – | – | – | – | – | 93% of vehicle | 124% of vehicle | 149% of vehicle | – | – | – | – | – | Withdrawal latency (% of vehicle) (Male CD-1 mice; [14]): 117% of vehicle; Withdrawal latency (% of vehicle) (Male CD-1 mice; [15]): 124% of vehicle |
| CCCCCCCCCCCCCCCCCC(=O)OC[C@H](COP(=O)([O-])OCC[N+](C)(C)C)OC(=O)C(CCC)CCCCCCC (stereo partly shown) [DP-M(3,7), 1-O-stearoyl-2-propylnonayl-sn-glycero-3-phosphocholine] | 127% of vehicle | 156% of vehicle | 124% of vehicle | 114% of vehicle | 126% of vehicle | – | – | – | 132% of vehicle | 123% of vehicle | 119% of vehicle | 102% of vehicle | 112% of vehicle | Withdrawal latency (% of vehicle) (Male CD-1 mice; [16]): 119% of vehicle; Withdrawal latency (% of vehicle) (Male CD-1 mice; [17]): 114% of vehicle; Withdrawal latency (% of vehicle) (Male CD-1 mice; [18]): 127% of vehicle; Withdrawal latency (% of vehicle) (Male CD-1 mice; [19]): 125% of vehicle |
| CCCCCCCC(CCC)C(=O)O (stereo not shown) [M(3,7), 2-Propylnonanoic acid] | – | – | – | – | – | – | – | – | – | – | – | – | – | Withdrawal latency (% of vehicle) (Male CD-1 mice; I.P., 150 mg/kg, 15 min post-injection): 157% of vehicle; Withdrawal latency (% of vehicle) (Male CD-1 mice; I.P., 150 mg/kg, 45 min post-injection): 137% of vehicle; Withdrawal latency (% of vehicle) (Male CD-1 mice; I.P., 150 mg/kg, 75 min post-injection): 106% of vehicle; Withdrawal latency (% of vehicle) (Male CD-1 mice; I.P., 150 mg/kg, 105 min post-injection): 131% of vehicle |
| CCCCCCCCCCCCCCCCCC(=O)OC[C@H](COP(=O)([O-])OCC[N+](C)(C)C)OC(=O)C(CCC)CCCCCCCCCC (stereo partly shown) [DP-M(3,10), 1-O-stearoyl-2-propyldodecanoyl-sn-glycero-3-phosphocholine] | – | – | – | – | – | – | – | – | 123% of vehicle | 119% of vehicle | 113% of vehicle | 123% of vehicle | 123% of vehicle | Withdrawal latency (% of vehicle) (Male CD-1 mice; [16]): 129% of vehicle; Withdrawal latency (% of vehicle) (Male CD-1 mice; [17]): 107% of vehicle |
| CCCCCCCCCCCCCCCCCC(=O)OC[C@H](COP(=O)([O-])OCC[N+](C)(C)C)OC(=O)C(CCCCC)CCCCC [DP-M(5,5), 1-O-stearoyl-2-pentylheptonayl-sn-glycero-3-phosphocholine] | 148% of vehicle | 143% of vehicle | 148% of vehicle | 162% of vehicle | 171% of vehicle | – | – | – | 113% of vehicle | 107% of vehicle | 118% of vehicle | 142% of vehicle | 152% of vehicle | Withdrawal latency (% of vehicle) (Male CD-1 mice; [16]): 121% of vehicle; Withdrawal latency (% of vehicle) (Male CD-1 mice; [17]): 124% of vehicle; Withdrawal latency (% of vehicle) (Male CD-1 mice; [18]): 155% of vehicle; Withdrawal latency (% of vehicle) (Male CD-1 mice; [19]): 124% of vehicle; dose dependence of analgesic effect (Male CD-1 mice; i.p. 25, 50, 100 mg/kg (FIG. 1)): dose dependent; size of analgesic effect, ranking among tested compounds (Male CD-1 mice): largest analgesic effects |
| CCCCCCCCCCCCCCCCCCC(CCC)C(=O)O (stereo not shown) [M(3,18), 2-Propyleicosanoic acid] | – | – | – | – | – | – | – | – | – | – | – | – | – | melting point: 55.6 to 57.4 °C |
| CCCCCC(CCCCC)C(=O)O [M(5,5), 2-Pentylheptanoic acid] | – | – | – | – | – | 161% of vehicle | 135% of vehicle | 158% of vehicle | – | – | – | – | – | Withdrawal latency (% of vehicle) (Male CD-1 mice; [14]): 145% of vehicle; size of analgesic effect, ranking among tested compounds (Male CD-1 mice): largest analgesic effects |
